In patent publication EP4799619A1, “COMPOUND TARGETING EGR-1 AND USE THEREOF FOR TREATMENT OF ATOPIC DERMATITIS” (AgeraMedi, Inc., priority 2023, dated 2025):

Molecular target: EGR-1 (Homo sapiens, UniProt P18146)
Experiment: EGR-1 DNA binding activity assay (EDBA)
Parameters: made in house
Conditions: EGR-1 DNA binding inhibitory activity; EGR-1 overexpressing cell lysate; absorbance at 450 nm; compound concentration not given
Description: In this experiment, the inhibitory effect of the compounds of the present invention on EGR-1 binding activity was evaluated using an EGR-1 DNA binding activity assay (EDBA).
Single-stranded sense and antisense oligonucleotides of the following EGR-1 binding sequence (EBS) were prepared by outsourcing to Bioneer Co., Ltd. (Daejeon, Korea). In this case, the 5'-end of the sense oligonucleotide was labeled with biotin. The sense and antisense oligonucleotides were heated at 95 °C for 5 minutes and then left overnight at room temperature to hybridize the sense and antisense oligonucleotides. Hereinafter, the hybridized sense and antisense oligonucleotides are referred to as biotin-EBS. • Sense sequence: biotin-5'-[…]-3' • Antisense sequence: 5'-[…]-3'
Avidin protein was coated on a 96-well plate (purchased from Thermo Fisher Scientific), and biotin-EBS was added to the plate at a concentration of 0.5 pmol/50 µL/well, followed by reaction at 37 °C for 1 hour to allow biotin-EBS oligonucleotide to be attached to the plate. After washing three times with phosphate buffer saline containing 0.05% Tween 20 (PBS/Tween 20) to remove unattached biotin-EBS oligonucleotides, 200 µL of PBS/Tween 20 solution containing 2% bovine serum albumin (BSA) was added to each well, followed by reaction at 37 °C for 1 hour to block the surface of the plate where no oligonucleotide was attached.
The solution containing the sample compound and the EGR-1 protein was added to the biotin-EBS oligonucleotide coated plate prepared in step (2).
The compound sample (1 µL) was reacted with the EGR-1 overexpressing cell lysate containing 10 mM Tris, pH 7.5, 50 mM KCl, 2% BSA and 8% glycerol at room temperature for 30 minutes, and then added to a reaction well coated with biotin-EBS and further reacted at room temperature for one hour. After washing three times with PBS/Tween 20 solution, an EGR-1 antibody was added to the PBS solution supplemented with 2% BSA and 5 mM NaCl in an amount of 50 µL per each well. The mixture was incubated at room temperature for one hour, washed three times with PBS/Tween 20 solution, and then treated with horseradish peroxidase-conjugated secondary antibody (Goat anti-rabbit IgG antibody, Cell Signaling Technology company, Danvers, Mass., USA) diluted by 1:1000 at room temperature for one hour. After washing five times with PBS/Tween 20 solution, a substrate tetramethylbenzidine solution was added to each well in an amount of 50 µL. After reacting for 5 minutes, the reaction was stopped by adding 100 µL of 2 N sulfuric acid solution. The DNA binding inhibitory activity of EGR-1 was measured by absorbance at 450 nm according to Equation 1 below. EGR-1 DNA binding inhibitory activity (%) = 100−{(As/Ap)×100} [formula]
As: absorbance of a sample prepared by reacting an EGR-1-overexpressing cell lysate with the compound.
Ap: absorbance of the sample treated only with EGR-1-overexpressing cell lysate.

Chain of EGR-1 (P18146 whole entry): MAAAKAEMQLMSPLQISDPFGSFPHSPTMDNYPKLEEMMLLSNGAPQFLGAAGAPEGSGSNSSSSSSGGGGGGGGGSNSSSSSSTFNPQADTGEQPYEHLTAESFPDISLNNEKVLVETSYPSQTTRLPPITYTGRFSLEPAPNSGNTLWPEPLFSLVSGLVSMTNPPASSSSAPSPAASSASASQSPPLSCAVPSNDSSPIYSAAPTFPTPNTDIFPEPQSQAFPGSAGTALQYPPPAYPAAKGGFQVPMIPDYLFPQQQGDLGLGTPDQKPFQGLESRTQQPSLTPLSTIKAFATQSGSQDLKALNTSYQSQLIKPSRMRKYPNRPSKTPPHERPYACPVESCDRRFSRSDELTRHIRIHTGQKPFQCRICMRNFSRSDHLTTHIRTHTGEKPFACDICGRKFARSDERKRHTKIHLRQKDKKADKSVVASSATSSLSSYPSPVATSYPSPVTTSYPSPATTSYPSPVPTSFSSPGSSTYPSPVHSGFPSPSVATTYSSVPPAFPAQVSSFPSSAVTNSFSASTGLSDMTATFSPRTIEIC

SMILES | Inhibition Rate (%)
O=C1Nc2c(F)cccc2/C1=N/NC(=S)Nc1ccc([N+](=O)[O-])cc1 [Compound 65, (Z)-2-(7-fluoro-2-oxoindolin-3-ylidene)-N-(4-nitrophenyl)hydrazinethioamide] | 43.03%
COc1ccc2c(c1)NC(=O)/C2=N\NC(=S)Nc1ccc(F)cc1 [Compound 67, (Z)-N-(4-fluorophenyl)-2-(6-methoxy-2-oxoindolin-3-ylidene)hydrazin-1-carbothioamide] | 25.90%
CCNC(=S)N/N=C1\C(=O)Nc2ccc(C)cc21 [Compound 73, (Z)-N-ethyl-2-(5-methyl-2-oxoindolin-3-ylidene)hydrazinethioamide] | 29.80%
COc1ccc(NC(=S)NN)cc1OC [Compound 56, N-(3,4-dimethoxyphenyl)hydrazinethioamide] | 12.67%
COc1ccccc1NC(=S)N/N=C1\C(=O)Nc2ccc(C)cc21 [Compound 31, (Z)-N-(2-methoxyphenyl)-2-(5-methyl-2-oxoindolin-3-ylidene)hydrazinethioamide] | 42.73%
COc1ccc2c(c1)NC(=O)/C2=N\NC(=S)Nc1cccc(C(F)(F)F)c1 [Compound 66, (Z)-2-(6-methoxy-2-oxoindolin-3-ylidene)-N-(3-(trifluoromethyl)phenyl)hydrazinethioamide] | 11.70%
COc1ccc2c(c1)NC(=O)/C2=N\NC(=S)Nc1ccccc1OC [Compound 24, (Z)-2-(6-methoxy-2-oxoindolin-3-ylidene)-N-(2-methoxyphenyl)hydrazin-1-carbothioamide] | 42.00%
O=C1Nc2ccc(F)cc2/C1=N/NC(=S)Nc1ccc(Br)cc1 [Compound 15, (Z)-N-(4-bromophenyl)-2-(5-fluoro-2-oxoindolin-3-ylidene)hydrazinethioamide] | 37.07%
NC(=S)N/N=C1\C(=O)Nc2ccc(Br)cc21 [Compound 34, (Z)-2-(5-bromo-2-oxoindolin-3-ylidene)hydrazinethioamide] | 46.00%
Cc1ccc2c(c1)/C(=N/NC(=S)Nc1ccccc1)C(=O)N2 [Compound 29, (Z)-2-(5-methyl-2-oxoindolin-3-ylidene)-N-phenylhydrazinethioamide] | 27.50%
N#Cc1ccc(NC(=S)N/N=C2\C(=O)Nc3ccc(F)cc32)cc1 [Compound 16, (Z)-N-(4-cyanophenyl)-2-(5-fluoro-2-oxoindolin-3-ylidene)hydrazinethioamide] | 40.57%
COc1cccc(NC(=S)N/N=C2\C(=O)Nc3ccccc32)c1 [Compound 50, (Z)-N-(3-methoxyphenyl)-2-(2-oxoindolin-3-ylidene)hydrazinethioamide] | 27.33%
COc1ccccc1NC(=S)N/N=C1\C(=O)Nc2cccc(Cl)c21 [Compound 61, (Z)-2-(4-chloro-2-oxoindolin-3-ylidene)-N-(2-methoxyphenyl)hydrazinethioamide] | 43.03%
O=C1Nc2ccc(F)cc2/C1=N/NC(=S)Nc1ccc(C(F)(F)F)cc1 [Compound 17, (Z)-2-(5-fluoro-2-oxoindolin-3-ylidene)-N-(4-(trifluoromethyl)phenyl)hydrazinethioamide] | 25.57%
O=C1Nc2c(Br)cccc2/C1=N/NC(=S)Nc1cccc([N+](=O)[O-])c1 [Compound 49, (Z)-2-(7-bromo-2-oxoindolin-3-ylidene)-N-(3-nitrophenyl)hydrazinethioamide] | 50.33%
CCNC(=S)NN [Compound 6, N-ethylhydrazinethioamide] | 27.00%
COc1cccc(NC(=S)N/N=C2\C(=O)Nc3cccc(Br)c32)c1 [Compound 51, (Z)-2-(4-bromo-2-oxoindolin-3-ylidene)-N-(3-methoxyphenyl)hydrazinethioamide] | 28.67%
O=C1Nc2c(F)cccc2/C1=N/NC(=S)Nc1ccc(Br)cc1 [Compound 19, (Z)-N-(4-bromophenyl)-2-(7-fluoro-2-oxoindolin-3-ylidene)hydrazinethioamide] | 47.77%
O=C1Nc2ccc(F)cc2/C1=N/NC(=S)Nc1ccccc1 [Compound 12, (Z)-2-(5-fluoro-2-oxoindolin-3-ylidene)-N-phenylhydrazinethioamide] | 28.97%

SMILES | Inhibition Rate (%)
O=C1Nc2ccc(F)cc2/C1=N/NC(=S)Nc1cccc([N+](=O)[O-])c1 [Compound 13, (Z)-2-(5-fluoro-2-oxoindolin-3-ylidene)-N-(3-nitrophenyl)hydrazinethioamide] | 25.57%
O=C1Nc2cc(Br)ccc2/C1=N/NC(=S)Nc1cccc([N+](=O)[O-])c1 [Compound 36, (Z)-2-(6-bromo-2-oxoindolin-3-ylidene)-N-(3-nitrophenyl)hydrazinethioamide] | 46.33%
CC(C)CNC(=S)NN [Compound 8, N-isobutylhydrazinethioamide] | 38.73%
Cc1cccc(NC(=S)N/N=C2\C(=O)Nc3ccc(C)cc32)c1 [Compound 75, (Z)-2-(5-methyl-2-oxoindolin-3-ylidene)-N-(m-tolyl)hydrazinethioamide] | 39.27%
O=C1Nc2c(Br)cccc2/C1=N/NC(=S)Nc1ccccc1 [Compound 46, (Z)-2-(7-bromo-2-oxoindolin-3-ylidene)-N-phenylhydrazinethioamide] | 11.33%
CC(C)NC(=S)NN [Compound 7, N-isopropylhydrazinethioamide] | 23.33%
COc1ccc(NC(=S)N/N=C2\C(=O)Nc3ccccc32)cc1 [Compound 53, (Z)-N-(4-methoxyphenyl)-2-(2-oxoindolin-3-ylidene)hydrazinethioamide] | 10.00%
Cc1ccc2c(c1)/C(=N/NC(=S)Nc1ccc(Br)cc1)C(=O)N2 [Compound 70, (Z)-N-(4-bromophenyl)-2-(5-methyl-2-oxoindolin-3-ylidene)hydrazinethioamide] | 29.60%
CCNC(=S)N/N=C1\C(=O)Nc2cc(OC)ccc21 [Compound 27, (Z)-N-ethyl-2-(6-methoxy-2-oxoindolin-3-ylidene)hydrazinethioamide] | 44.00%
COc1ccc2c(c1)NC(=O)/C2=N\NC(=S)Nc1ccccc1 [Compound 22, (Z)-2-(6-methoxy-2-oxoindolin-3-ylidene)-N-phenylhydrazinethioamide] | 51.33%
O=C1Nc2cccc(Br)c2/C1=N/NC(=S)Nc1ccc([N+](=O)[O-])cc1 [Compound 37, (Z)-2-(4-bromo-2-oxoindolin-3-ylidene)-N-(4-nitrophenyl)hydrazinethioamide] | 36.33%
O=C1Nc2ccccc2/C1=N/NC(=S)Nc1cccc([N+](=O)[O-])c1 [Compound 47, (Z)-N-(3-nitrophenyl)-2-(2-oxoindolin-3-ylidene)hydrazinethioamide] | 35.33%
N#Cc1ccc(NC(=S)N/N=C2\C(=O)Nc3c(F)cccc32)cc1 [Compound 20, (Z)-N-(4-cyanophenyl)-2-(7-fluoro-2-oxoindolin-3-ylidene)hydrazinethioamide] | 44.93%
NNC(=S)Nc1ccc(F)cc1 [Compound 2, N-(4-fluorophenyl)hydrazinethioamide] | 25.70%
O=C1Nc2ccc(F)cc2/C1=N/NC(=S)Nc1ccc(F)cc1 [Compound 14, (Z)-2-(5-fluoro-2-oxoindolin-3-ylidene)-N-(4-fluorophenyl)hydrazinethioamide] | 17.80%
COc1ccccc1NC(=S)N/N=C1\C(=O)Nc2ccccc21 [Compound 39, (Z)-N-(2-methoxyphenyl)-2-(2-oxoindolin-3-ylidene)hydrazinethioamide] | 47.33%
NC(=S)N/N=C1\C(=O)Nc2cccc(Br)c21 [Compound 40, (Z)-2-(4-bromo-2-oxoindolin-3-ylidene)hydrazinethioamide] | 27.33%
O=C1Nc2cc(Br)ccc2/C1=N/NC(=S)Nc1ccccc1 [Compound 45, (Z)-2-(6-bromo-2-oxoindolin-3-ylidene)-N-phenylhydrazinethioamide] | 9.33%
Cc1cccc(NC(=S)N/N=C2\C(=O)Nc3ccc(F)cc32)c1 [Compound 64, (Z)-2-(5-fluoro-2-oxoindolin-3-ylidene)-N-(m-tolyl)hydrazinethioamide] | 37.90%
